As usually defined, the IC50 is the midpoint of a concentration-inhibition curve.

Activity, IC50 and inhibition data for one compound are collected here from ChEMBL document CHEMBL5696441 (Nat Chem Biol, 2011).

In assay [1] the target is Dual specificity tyrosine-phosphorylation-regulated kinase 1B (Homo sapiens) (UniProt Q9Y463). In words: Inhibition of human DYRK1B assessed as residual activity at 1 uM using RBER-CHKtide as substrate in presence of 33P-ATP by ProQinase assay relative to control.
Assay [2] concerns the target Mitogen-activated protein kinase kinase kinase 13 (Homo sapiens) (UniProt O43283). As to the kind of experiment: Inhibition of LZK (unknown origin) assessed as remaining activity at 1 uM by Kinome scan method relative to control.
Assay [3] addresses Insulin-like growth factor 1 receptor (Homo sapiens) (UniProt P08069). In words: Inhibition of IGF1R (unknown origin) assessed as remaining activity at 1 uM by Kinome scan method relative to control.
The target in assay [4] is Mitogen-activated protein kinase kinase kinase 11 (Homo sapiens) (UniProt Q16584). As to the kind of experiment: Inhibition of MLK3 (unknown origin) assessed as remaining activity at 1 uM by Kinome scan method relative to control.
The target in assay [5] is Mitogen-activated protein kinase kinase kinase 8 (Homo sapiens) (UniProt P41279). As to the kind of experiment: Inhibition of human COT assessed as residual activity at 1 uM using RBER-CHKtide as substrate in presence of 33P-ATP by ProQinase assay relative to control.
Assay [6] in a line: Anti-inflammatory activity against human derived high respond PBMC cells assessed as inhibition in stimulated IL-1alpha cytokine release incubated for 2 hrs in the presence of LPS/SEB/aCD28 by Luminex based sandwich immunoassay. Format: functional, cell-based.
Assay [7] deals with MAP kinase p38 (Homo sapiens) (UniProt O15264+Q15759+Q16539+P53778). As to the kind of experiment: Inhibition of p38-MAPK in human HeLa cells assessed as reduction in HSP27 phosphorylation at Ser82 level at 50 nM incubated for 2 hrs in the presence of anisomycin stimulation for 40 mins by western blot analysis. Format: cell-based.
For assay [8], the target named is Serine/threonine-protein kinase PAK 3 (Homo sapiens) (UniProt O75914). As to the kind of experiment: Inhibition of PAK3 (unknown origin) assessed as remaining activity at 1 uM by Kinome scan method relative to control.
Assay [9] has as its target Calcium/calmodulin-dependent protein kinase kinase 1 (Homo sapiens) (UniProt Q8N5S9). As to the kind of experiment: Inhibition of human CAMKK1 assessed as residual activity at 1 uM using RB-CTF as substrate in presence of 33P-ATP by ProQinase assay relative to control.
Assay [10] concerns the target cAMP-dependent protein kinase catalytic subunit PRKX (Homo sapiens) (UniProt P51817). As to the kind of experiment: Inhibition of PRKX (unknown origin) assessed as remaining activity at 1 uM by Kinome scan method relative to control.
Assay [11] addresses T1, Tyrosine-protein kinase JAK3 (Homo sapiens) (UniProt P52333).
T1 sequence (whole entry): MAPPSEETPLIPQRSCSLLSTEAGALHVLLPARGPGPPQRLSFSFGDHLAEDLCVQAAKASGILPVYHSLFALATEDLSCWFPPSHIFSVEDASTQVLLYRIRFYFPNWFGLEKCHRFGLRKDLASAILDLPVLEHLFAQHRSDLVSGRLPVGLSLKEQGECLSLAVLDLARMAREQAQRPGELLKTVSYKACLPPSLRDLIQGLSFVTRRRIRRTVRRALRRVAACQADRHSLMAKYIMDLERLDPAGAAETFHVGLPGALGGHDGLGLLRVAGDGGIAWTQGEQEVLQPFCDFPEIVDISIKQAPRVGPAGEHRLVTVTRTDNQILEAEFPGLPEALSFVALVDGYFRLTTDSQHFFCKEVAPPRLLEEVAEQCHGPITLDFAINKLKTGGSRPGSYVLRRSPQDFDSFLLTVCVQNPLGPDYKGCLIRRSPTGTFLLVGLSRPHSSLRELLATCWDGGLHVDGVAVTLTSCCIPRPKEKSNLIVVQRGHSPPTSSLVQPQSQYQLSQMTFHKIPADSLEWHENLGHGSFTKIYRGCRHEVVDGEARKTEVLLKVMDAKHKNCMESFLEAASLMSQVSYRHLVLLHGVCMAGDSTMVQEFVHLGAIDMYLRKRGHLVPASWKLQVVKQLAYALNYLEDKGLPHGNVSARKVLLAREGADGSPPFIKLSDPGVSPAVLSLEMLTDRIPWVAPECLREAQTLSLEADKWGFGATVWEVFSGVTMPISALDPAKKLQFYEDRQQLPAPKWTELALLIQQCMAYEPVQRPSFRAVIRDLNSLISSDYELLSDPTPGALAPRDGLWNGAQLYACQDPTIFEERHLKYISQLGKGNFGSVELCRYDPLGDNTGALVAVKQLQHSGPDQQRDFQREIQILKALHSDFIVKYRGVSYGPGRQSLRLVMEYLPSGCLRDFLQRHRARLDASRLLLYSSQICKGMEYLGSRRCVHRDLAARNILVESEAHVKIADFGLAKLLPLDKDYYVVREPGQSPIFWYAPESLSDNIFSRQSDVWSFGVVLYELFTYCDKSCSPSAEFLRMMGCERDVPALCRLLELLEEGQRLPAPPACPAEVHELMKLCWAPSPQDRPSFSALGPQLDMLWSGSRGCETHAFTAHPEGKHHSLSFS
In words: Inhibition of human JAK3 assessed as residual activity at 1 uM using poly(Ala,Glu,Lys,Tyr)6:2:5:1 as substrate in presence of 33P-ATP by ProQinase assay relative to control.

Assay [12] has as its target Activin receptor type-1-like (Homo sapiens) (UniProt P37023). As to the kind of experiment: Inhibition of human ACVRL1 assessed as residual activity at 1 uM using Casein as substrate in presence of 33P-ATP by ProQinase assay relative to control.

Activity calls are given as the source filed them. No cut-off for these calls is given here.

Activin receptor type-1-like (Homo sapiens), sequence (P37023 whole entry): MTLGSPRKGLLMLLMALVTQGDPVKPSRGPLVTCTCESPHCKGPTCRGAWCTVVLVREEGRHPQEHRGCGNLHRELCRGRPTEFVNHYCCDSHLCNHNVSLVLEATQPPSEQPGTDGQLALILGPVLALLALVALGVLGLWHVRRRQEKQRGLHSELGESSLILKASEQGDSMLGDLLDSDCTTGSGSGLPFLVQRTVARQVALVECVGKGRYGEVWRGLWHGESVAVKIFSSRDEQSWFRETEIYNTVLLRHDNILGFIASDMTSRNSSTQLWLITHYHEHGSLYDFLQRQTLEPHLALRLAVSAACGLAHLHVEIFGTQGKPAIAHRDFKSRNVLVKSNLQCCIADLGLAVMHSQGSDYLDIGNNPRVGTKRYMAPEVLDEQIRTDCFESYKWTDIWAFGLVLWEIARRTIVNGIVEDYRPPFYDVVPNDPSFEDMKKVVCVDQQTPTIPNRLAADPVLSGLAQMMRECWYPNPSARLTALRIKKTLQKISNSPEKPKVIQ
Calcium/calmodulin-dependent protein kinase kinase 1 (Homo sapiens), sequence (Q8N5S9 whole entry, looked up): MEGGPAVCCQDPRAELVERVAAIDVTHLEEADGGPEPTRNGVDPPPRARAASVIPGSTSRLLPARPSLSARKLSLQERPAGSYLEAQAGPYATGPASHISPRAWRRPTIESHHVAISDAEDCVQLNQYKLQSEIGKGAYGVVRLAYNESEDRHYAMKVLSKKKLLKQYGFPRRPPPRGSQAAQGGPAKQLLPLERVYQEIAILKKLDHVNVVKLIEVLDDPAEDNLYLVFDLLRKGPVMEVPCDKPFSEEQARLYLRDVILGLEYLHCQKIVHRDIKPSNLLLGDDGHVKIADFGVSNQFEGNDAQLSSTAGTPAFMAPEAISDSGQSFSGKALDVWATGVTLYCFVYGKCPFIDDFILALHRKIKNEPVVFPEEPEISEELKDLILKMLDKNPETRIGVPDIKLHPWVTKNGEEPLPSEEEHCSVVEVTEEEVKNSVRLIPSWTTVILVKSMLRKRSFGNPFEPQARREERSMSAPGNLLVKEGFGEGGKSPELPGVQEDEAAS
Serine/threonine-protein kinase PAK 3 (Homo sapiens), sequence (O75914 whole entry, looked up): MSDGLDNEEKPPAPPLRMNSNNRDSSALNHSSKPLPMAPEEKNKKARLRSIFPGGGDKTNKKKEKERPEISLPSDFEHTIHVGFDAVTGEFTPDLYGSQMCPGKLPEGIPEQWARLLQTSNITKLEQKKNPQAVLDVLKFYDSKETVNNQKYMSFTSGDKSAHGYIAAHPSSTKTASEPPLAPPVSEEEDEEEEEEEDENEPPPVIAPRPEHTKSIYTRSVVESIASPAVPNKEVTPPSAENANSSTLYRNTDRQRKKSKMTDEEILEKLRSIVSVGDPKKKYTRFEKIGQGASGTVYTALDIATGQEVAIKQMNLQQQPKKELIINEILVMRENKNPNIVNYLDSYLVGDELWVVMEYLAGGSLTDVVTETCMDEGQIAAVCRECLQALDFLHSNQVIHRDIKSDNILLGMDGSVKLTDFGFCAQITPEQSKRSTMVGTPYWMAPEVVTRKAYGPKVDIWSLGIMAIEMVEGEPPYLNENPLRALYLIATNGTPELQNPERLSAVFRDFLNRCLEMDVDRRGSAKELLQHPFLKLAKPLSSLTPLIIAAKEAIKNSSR
Dual specificity tyrosine-phosphorylation-regulated kinase 1B (Homo sapiens), sequence (Q9Y463 whole entry, looked up): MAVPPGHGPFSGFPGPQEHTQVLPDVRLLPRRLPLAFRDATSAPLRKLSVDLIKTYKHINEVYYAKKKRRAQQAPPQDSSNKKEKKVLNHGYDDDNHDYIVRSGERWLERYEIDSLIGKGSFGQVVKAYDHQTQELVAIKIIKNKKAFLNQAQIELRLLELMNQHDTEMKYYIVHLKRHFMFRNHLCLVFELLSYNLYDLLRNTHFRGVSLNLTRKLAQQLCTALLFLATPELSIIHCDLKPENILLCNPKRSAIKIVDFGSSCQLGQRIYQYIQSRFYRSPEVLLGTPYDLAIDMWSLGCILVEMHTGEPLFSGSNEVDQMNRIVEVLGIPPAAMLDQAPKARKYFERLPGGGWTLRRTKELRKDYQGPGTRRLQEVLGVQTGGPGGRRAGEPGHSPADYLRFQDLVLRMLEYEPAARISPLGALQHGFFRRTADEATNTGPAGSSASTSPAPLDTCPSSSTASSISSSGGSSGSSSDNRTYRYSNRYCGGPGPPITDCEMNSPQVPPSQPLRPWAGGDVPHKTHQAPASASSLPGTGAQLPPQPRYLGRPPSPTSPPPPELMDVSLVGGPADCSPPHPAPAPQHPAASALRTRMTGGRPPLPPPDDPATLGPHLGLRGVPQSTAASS
Mitogen-activated protein kinase kinase kinase 8 (Homo sapiens), sequence (P41279 whole entry): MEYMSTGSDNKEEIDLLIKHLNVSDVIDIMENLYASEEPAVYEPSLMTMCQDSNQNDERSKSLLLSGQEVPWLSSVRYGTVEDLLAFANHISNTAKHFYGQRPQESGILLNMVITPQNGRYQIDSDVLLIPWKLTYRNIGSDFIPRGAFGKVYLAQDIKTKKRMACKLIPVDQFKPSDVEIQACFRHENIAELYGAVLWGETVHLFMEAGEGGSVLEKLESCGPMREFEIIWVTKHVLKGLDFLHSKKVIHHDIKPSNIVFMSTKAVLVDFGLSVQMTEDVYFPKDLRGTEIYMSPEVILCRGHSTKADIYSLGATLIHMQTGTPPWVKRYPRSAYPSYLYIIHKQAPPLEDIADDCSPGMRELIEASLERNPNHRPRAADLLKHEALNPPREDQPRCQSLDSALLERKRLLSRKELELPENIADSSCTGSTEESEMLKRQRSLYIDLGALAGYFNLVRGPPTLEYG
Mitogen-activated protein kinase kinase kinase 11 (Homo sapiens), sequence (Q16584 whole entry, looked up): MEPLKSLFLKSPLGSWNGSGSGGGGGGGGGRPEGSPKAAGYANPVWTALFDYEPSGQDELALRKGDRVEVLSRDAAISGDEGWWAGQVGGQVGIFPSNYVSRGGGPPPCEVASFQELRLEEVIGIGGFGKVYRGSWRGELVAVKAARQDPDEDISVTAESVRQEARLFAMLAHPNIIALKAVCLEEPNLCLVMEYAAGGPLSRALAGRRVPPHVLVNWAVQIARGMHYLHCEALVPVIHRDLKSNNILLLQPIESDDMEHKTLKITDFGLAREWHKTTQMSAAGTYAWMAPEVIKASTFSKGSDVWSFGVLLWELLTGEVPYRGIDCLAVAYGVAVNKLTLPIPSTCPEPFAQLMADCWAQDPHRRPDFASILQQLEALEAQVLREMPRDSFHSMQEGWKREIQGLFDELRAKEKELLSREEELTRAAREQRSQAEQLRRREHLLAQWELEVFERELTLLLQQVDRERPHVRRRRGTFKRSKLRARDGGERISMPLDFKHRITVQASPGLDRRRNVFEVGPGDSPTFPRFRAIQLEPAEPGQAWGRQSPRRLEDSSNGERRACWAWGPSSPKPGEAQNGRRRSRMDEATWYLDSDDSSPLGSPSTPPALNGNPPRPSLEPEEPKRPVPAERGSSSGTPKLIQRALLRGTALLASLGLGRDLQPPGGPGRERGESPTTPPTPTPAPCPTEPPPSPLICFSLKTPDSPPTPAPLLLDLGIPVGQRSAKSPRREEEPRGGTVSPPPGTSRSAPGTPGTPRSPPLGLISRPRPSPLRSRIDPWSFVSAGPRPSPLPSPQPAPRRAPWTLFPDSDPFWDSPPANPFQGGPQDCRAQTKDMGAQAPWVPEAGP
cAMP-dependent protein kinase catalytic subunit PRKX (Homo sapiens), sequence (P51817 whole entry): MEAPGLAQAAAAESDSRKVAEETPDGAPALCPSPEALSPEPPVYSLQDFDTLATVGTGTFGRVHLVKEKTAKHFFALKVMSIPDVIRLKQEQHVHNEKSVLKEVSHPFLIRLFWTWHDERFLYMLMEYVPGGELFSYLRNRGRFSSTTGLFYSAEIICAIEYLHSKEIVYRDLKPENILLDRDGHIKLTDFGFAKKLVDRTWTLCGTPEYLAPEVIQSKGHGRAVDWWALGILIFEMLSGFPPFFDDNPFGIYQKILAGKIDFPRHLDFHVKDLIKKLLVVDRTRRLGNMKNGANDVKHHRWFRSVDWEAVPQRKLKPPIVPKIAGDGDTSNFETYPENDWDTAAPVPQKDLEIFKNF
Mitogen-activated protein kinase kinase kinase 13 (Homo sapiens), sequence (O43283 whole entry): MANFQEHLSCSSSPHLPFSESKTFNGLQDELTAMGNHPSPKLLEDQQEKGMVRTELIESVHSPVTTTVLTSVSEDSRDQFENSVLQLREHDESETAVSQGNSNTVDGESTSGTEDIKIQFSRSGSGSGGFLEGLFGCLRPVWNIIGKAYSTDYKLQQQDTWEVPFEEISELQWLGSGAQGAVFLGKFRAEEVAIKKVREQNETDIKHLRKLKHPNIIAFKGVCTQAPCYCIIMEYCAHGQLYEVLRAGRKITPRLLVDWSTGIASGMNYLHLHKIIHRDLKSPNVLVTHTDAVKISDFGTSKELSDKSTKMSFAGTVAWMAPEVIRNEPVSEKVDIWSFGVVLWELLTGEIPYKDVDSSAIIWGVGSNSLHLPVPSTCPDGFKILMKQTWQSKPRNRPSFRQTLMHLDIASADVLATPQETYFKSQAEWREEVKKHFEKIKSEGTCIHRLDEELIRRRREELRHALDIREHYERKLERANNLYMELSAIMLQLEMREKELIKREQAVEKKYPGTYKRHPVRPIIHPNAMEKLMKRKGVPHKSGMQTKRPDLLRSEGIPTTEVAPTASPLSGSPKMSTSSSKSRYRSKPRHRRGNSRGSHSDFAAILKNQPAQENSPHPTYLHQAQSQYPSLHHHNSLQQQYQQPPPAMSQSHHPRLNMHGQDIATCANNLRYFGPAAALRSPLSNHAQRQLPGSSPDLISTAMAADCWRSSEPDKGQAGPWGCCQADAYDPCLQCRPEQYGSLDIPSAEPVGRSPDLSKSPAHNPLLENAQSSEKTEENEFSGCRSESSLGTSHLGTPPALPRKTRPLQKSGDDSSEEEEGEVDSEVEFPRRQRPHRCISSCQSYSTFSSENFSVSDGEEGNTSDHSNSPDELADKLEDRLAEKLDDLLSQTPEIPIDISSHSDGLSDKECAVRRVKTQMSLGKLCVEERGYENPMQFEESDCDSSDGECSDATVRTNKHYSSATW

`O=C1c2ccc(Nc3ccc(F)cc3F)cc2CCc2ccc(OC[C@H](O)CO)cc21` [Skepinone-L]: the Activity in assay [1] turned out to be 102%; in assay [2], 100%; in [3] it was 91%; in [4] it was 96%; in assay [5], 91%; in assay [8] it was 100%. For the same compound, the Activity in assay [9] was found to be 83%; in assay [10], 89%; in assay [11] it was 103%; in assay [12], 105%. Also, in assay [6], the IC50 was 120 nM. The inhibition result in assay [7] was “Active”.
